Assay results reported in publication PMC6364417, “Kinase inhibitor library screening identifies synergistic drug combinations effective in sensitive and resistant melanoma cells” (Journal of Experimental & Clinical Cancer Research : CR, 2019).

Tests used:
Experiment in all cases: Kinase inhibitor library screening, PrestoBlue cell viability, 1 or 10 μM, 72 h
[1] = tested on: 501Mel-XP cells (Vemurafenib-resistant); conditions: 501Mel XP, in %
[2] = tested on: 501Mel-GP cells (Dabrafenib-resistant); conditions: 501Mel GP, in %
IGR37 cells (parental) = conditions: IGR37 Parental, in %
[3] = tested on: A375-XP cells (Vemurafenib-resistant); conditions: A375 XP; for cell viability (kinase inhibitor library screening) / cell viability, A375 XP, 1μΜ / cell viability, A375 XP, 10μΜ: in %
[4] = tested on: IGR37-XP cells (Vemurafenib-resistant); conditions: IGR37 XP
A375 cells (parental) = conditions: A375 Parental; for cell viability (kinase inhibitor library screening) / cell viability, A375 Parental, 1μΜ / cell viability, A375 Parental, 10μΜ: in %
[5] = tested on: IGR37-GP cells (Dabrafenib-resistant); conditions: IGR37 GP
[6] = tested on: A375-GP cells (Dabrafenib-resistant); conditions: A375 GP; for cell viability (kinase inhibitor library screening) / cell viability, A375 GP, 1μΜ / cell viability, A375 GP, 10μΜ: in %
501Mel cells (parental) = conditions: 501Mel Parental, in %
Procedure, shortened: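 Parental cells and Vemurafenib-resistant (XP) or Dabrafenib-resistant (GP) derivatives were treated with library kinase inhibitors at 1 and 10 μM for 72 h. Viability measured by PrestoBlue and expressed as % of untreated cells, at least in duplicate.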

## CC1(C)CNc2cc(NC(=O)c3cccnc3NCc3ccncc3)ccc21 [Motesanib Diphosphate]
[1]; 1μΜ
  cell viability (kinase inhibitor library screening): 91.0
[1]; 10μΜ
  cell viability (kinase inhibitor library screening): 71.5
[2]; 1μΜ
  cell viability (kinase inhibitor library screening): 98.5
[2]; 10μΜ
  cell viability (kinase inhibitor library screening): 82.7
IGR37 cells (parental); 1μΜ
  cell viability (kinase inhibitor library screening): 97.7
IGR37 cells (parental); 10μΜ
  cell viability (kinase inhibitor library screening): 97.0
[3]; 1μΜ
  cell viability (kinase inhibitor library screening): 109.8
[3]; 10μΜ
  cell viability (kinase inhibitor library screening): 97.0
[4]; 10μΜ, in %
  cell viability (kinase inhibitor library screening): 78.2
A375 cells (parental); 1μΜ
  cell viability (kinase inhibitor library screening): 105.3
A375 cells (parental); 10μΜ
  cell viability (kinase inhibitor library screening): 89.5
[5]; 1μΜ, in %
  cell viability (kinase inhibitor library screening): 85.5
[5]; 10μΜ, in %
  cell viability (kinase inhibitor library screening): 85.5
[6]; 1μΜ
  cell viability (kinase inhibitor library screening): 99.4
[6]; 10μΜ
  cell viability (kinase inhibitor library screening): 89.9
501Mel cells (parental); 1μΜ
  cell viability (kinase inhibitor library screening): 97.3
501Mel cells (parental); 10μΜ
  cell viability (kinase inhibitor library screening): 94.6

## O=c1cc(N2CCOCC2)oc2c(-c3cccc4c3sc3ccccc34)cccc12 [NU7441(KU-57788)]
[1]; 10μΜ, 72 h
  cell viability, 501Mel XP, 10μΜ: 10.9
[2]; 1μΜ, 72 h
  cell viability, 501Mel GP, 1μΜ: 93.7
[2]; 10μΜ, 72 h
  cell viability, 501Mel GP, 10μΜ: 32.9
IGR37 cells (parental); 1μΜ, 72 h
  cell viability, IGR37 Parental, 1μΜ: 96.8
IGR37 cells (parental); 10μΜ, 72 h
  cell viability, IGR37 Parental, 10μΜ: 98.9
[3]; 1μΜ, 72 h
  cell viability, A375 XP, 1μΜ: 98.6
[3]; 10μΜ, 72 h
  cell viability, A375 XP, 10μΜ: 55.7
[4]; 10μΜ, 72 h
  cell viability, IGR37 XP, 10μΜ: 20.1%
[4]; 1μΜ, 72 h, in %
  cell viability, IGR37 XP, 1μΜ: 99.7
A375 cells (parental); 1μΜ, 72 h
  cell viability, A375 Parental, 1μΜ: 98.8
A375 cells (parental); 10μΜ, 72 h
  cell viability, A375 Parental, 10μΜ: 52.7
[5]; 10μΜ, 72 h
  cell viability, IGR37 GP, 10μΜ: 49.3%
[5]; 1μΜ, 72 h, in %
  cell viability, IGR37 GP, 1μΜ: 92.2
[6]; 1μΜ, 72 h
  cell viability, A375 GP, 1μΜ: 92.7
[6]; 10μΜ, 72 h
  cell viability, A375 GP, 10μΜ: 47.4
501Mel cells (parental); 10μΜ, 72 h
  cell viability, 501Mel Parental, 10μΜ: 61.0

## Nc1ncnc2c1c(-c1cccc(OCc3ccccc3)c1)cn2C1CC(CN2CCCC2)C1 (stereo not drawn) [NVP-ADW742]
[1]; 1μΜ, 72 h
  cell viability, 501Mel XP, 1μΜ: 82.0
[1]; 10μΜ, 72 h
  cell viability, 501Mel XP, 10μΜ: -0.346
[2]; 1μΜ, 72 h
  cell viability, 501Mel GP, 1μΜ: 91.7
[2]; 10μΜ, 72 h
  cell viability, 501Mel GP, 10μΜ: -0.2
IGR37 cells (parental); 1μΜ, 72 h
  cell viability, IGR37 Parental, 1μΜ: 110.2
IGR37 cells (parental); 10μΜ, 72 h
  cell viability, IGR37 Parental, 10μΜ: 0.537
[3]; 1μΜ, 72 h
  cell viability, A375 XP, 1μΜ: 90.5
[3]; 10μΜ, 72 h
  cell viability, A375 XP, 10μΜ: 13.9
[4]; 10μΜ, 72 h
  cell viability, IGR37 XP, 10μΜ: 1.2%
[4]; 1μΜ, 72 h, in %
  cell viability, IGR37 XP, 1μΜ: 78.5
A375 cells (parental); 1μΜ, 72 h
  cell viability, A375 Parental, 1μΜ: 89.6
A375 cells (parental); 10μΜ, 72 h
  cell viability, A375 Parental, 10μΜ: 25.2
[5]; 10μΜ, 72 h
  cell viability, IGR37 GP, 10μΜ: 1.6%
[5]; 1μΜ, 72 h, in %
  cell viability, IGR37 GP, 1μΜ: 83.7
[6]; 1μΜ, 72 h
  cell viability, A375 GP, 1μΜ: 57.9
[6]; 10μΜ, 72 h
  cell viability, A375 GP, 10μΜ: 20.2
501Mel cells (parental); 1μΜ, 72 h
  cell viability, 501Mel Parental, 1μΜ: 80.8
501Mel cells (parental); 10μΜ, 72 h
  cell viability, 501Mel Parental, 10μΜ: 0.529

## COc1ccc(-c2ccc3ncc4c(c3c2)n(-c2ccc(N3CCNCC3)c(C(F)(F)F)c2)c(=O)n4C)cn1 [NVP-BGT226]
[1]; 1μΜ, 72 h
  Cell viability in kinase inhibitor library screening, 501Mel XP, 1μΜ: 1.5
[1]; 10μΜ, 72 h
  Cell viability in kinase inhibitor library screening, 501Mel XP, 10μΜ: 1.1
[2]; 1μΜ, 72 h
  Cell viability in kinase inhibitor library screening, 501Mel GP, 1μΜ: 0.9
[2]; 10μΜ, 72 h
  Cell viability in kinase inhibitor library screening, 501Mel GP, 10μΜ: 0.145
IGR37 cells (parental); 1μΜ, 72 h
  Cell viability in kinase inhibitor library screening, IGR37 Parental, 1μΜ: 2.3
IGR37 cells (parental); 10μΜ, 72 h
  Cell viability in kinase inhibitor library screening, IGR37 Parental, 10μΜ: -1.8
[3]; 1μΜ, 72 h
  Cell viability in kinase inhibitor library screening, A375 XP, 1μΜ: 7.2
[3]; 10μΜ, 72 h
  Cell viability in kinase inhibitor library screening, A375 XP, 10μΜ: 1.0
[4]; 10μΜ, 72 h
  Cell viability in kinase inhibitor library screening, IGR37 XP, 10μΜ: 1.4%
[4]; 1μΜ, 72 h, in %
  Cell viability in kinase inhibitor library screening, IGR37 XP, 1μΜ: 2.5
A375 cells (parental); 10μΜ, 72 h
  Cell viability in kinase inhibitor library screening, A375 Parental, 10μΜ: 0.952
A375 cells (parental); 1μΜ, 72 h
  Cell viability in kinase inhibitor library screening, A375 Parental, 1μΜ: 9.1
[5]; 10μΜ, 72 h
  Cell viability in kinase inhibitor library screening, IGR37 GP, 10μΜ: 2.6%
[5]; 1μΜ, 72 h, in %
  Cell viability in kinase inhibitor library screening, IGR37 GP, 1μΜ: 2.9
[6]; 1μΜ, 72 h
  Cell viability in kinase inhibitor library screening, A375 GP, 1μΜ: 7.1
[6]; 10μΜ, 72 h
  Cell viability in kinase inhibitor library screening, A375 GP, 10μΜ: 0.9
501Mel cells (parental); 1μΜ, 72 h
  Cell viability in kinase inhibitor library screening, 501Mel Parental, 1μΜ: 1.2
501Mel cells (parental); 10μΜ, 72 h
  Cell viability in kinase inhibitor library screening, 501Mel Parental, 10μΜ: 1.1
